This note sets out measurements from ChEMBL document CHEMBL1909046, “DrugMatrix in vitro pharmacology data”.

The target in data set [1] is T1, Muscarinic acetylcholine receptor M4 (Homo sapiens, UniProt P08173).
T1 sequence (P08173 whole entry): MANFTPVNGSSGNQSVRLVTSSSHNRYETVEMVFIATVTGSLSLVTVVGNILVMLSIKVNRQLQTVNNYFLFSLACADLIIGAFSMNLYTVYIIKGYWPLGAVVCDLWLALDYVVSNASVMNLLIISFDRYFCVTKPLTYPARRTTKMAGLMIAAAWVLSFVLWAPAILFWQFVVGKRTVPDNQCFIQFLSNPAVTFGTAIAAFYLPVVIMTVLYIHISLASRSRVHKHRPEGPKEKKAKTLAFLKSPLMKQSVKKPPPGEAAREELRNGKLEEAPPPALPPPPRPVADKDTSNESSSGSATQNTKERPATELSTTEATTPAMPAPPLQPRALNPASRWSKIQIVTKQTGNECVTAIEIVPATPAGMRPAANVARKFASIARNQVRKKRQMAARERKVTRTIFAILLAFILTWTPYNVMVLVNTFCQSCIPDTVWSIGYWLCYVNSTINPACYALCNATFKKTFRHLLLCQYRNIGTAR
Format: cell membranes, CHO-K1, Membrane. The conditions noted are these: cho-k1.

Data set [2] has as its target T2, Nitric oxide synthase, inducible (Mus musculus, UniProt P29477).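 Note: inhibition of iNOS enzyme activity measured with L-arginine as substrate.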
T2 sequence (P29477 whole entry): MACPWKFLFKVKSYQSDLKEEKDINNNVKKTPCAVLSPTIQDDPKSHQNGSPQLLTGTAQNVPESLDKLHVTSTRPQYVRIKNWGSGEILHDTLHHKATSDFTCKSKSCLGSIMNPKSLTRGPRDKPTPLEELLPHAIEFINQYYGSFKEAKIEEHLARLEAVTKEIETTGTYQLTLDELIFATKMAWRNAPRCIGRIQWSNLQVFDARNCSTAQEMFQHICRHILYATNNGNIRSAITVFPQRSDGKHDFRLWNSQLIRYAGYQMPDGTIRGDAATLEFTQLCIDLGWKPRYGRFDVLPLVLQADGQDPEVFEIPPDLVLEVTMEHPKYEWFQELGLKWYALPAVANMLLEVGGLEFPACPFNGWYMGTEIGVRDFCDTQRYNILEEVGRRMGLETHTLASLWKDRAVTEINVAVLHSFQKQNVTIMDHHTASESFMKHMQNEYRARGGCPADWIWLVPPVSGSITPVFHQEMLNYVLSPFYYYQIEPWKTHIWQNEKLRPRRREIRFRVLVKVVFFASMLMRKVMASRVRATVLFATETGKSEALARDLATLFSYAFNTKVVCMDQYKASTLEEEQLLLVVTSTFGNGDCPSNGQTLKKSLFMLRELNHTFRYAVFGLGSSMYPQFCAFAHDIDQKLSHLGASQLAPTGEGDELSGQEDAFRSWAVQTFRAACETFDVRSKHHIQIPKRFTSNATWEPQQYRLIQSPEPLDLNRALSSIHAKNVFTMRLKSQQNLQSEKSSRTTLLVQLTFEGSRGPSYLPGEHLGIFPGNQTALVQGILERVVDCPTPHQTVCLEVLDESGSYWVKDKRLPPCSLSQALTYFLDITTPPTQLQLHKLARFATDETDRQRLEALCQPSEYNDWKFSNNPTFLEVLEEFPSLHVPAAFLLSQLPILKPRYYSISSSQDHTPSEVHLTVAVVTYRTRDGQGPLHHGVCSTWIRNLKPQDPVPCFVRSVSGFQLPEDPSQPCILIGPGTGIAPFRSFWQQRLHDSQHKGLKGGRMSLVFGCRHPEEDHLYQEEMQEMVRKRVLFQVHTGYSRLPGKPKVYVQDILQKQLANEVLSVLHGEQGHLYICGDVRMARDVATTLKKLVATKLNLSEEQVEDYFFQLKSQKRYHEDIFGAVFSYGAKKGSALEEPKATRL
Set-up: species or system Escherichia coli.

Data set [3] deals with Delta-type opioid receptor (Homo sapiens, UniProt P41143). Format: cell membranes, HEK293, Membrane. The conditions noted are these: hek293.
The target of data set [4] is Cytochrome P450 3A4 (Homo sapiens, UniProt P08684). The note with it: bti-tn-5b1-4.
In data set [5] the target is T3, Adenosine receptor A3 (Homo sapiens, UniProt P0DMS8).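 Note: radioligand binding assay with AB-MECA serving as the labeled ligand.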
T3 sequence (P0DMS8 whole entry): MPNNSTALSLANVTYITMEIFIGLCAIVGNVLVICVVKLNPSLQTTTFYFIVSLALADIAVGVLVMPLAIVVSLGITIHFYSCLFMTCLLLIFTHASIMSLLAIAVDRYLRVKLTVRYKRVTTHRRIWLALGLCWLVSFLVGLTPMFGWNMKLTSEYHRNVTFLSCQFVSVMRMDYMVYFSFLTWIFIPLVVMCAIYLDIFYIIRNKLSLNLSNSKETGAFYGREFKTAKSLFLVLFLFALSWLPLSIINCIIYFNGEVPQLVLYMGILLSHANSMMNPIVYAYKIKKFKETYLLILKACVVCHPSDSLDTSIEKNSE
Type of data set: cell membranes, CHO-K1, Membrane.

For data set [6], the target named is T4, Neuropeptide Y receptor type 1 (Homo sapiens, UniProt P25929).
T4 sequence (P25929 whole entry): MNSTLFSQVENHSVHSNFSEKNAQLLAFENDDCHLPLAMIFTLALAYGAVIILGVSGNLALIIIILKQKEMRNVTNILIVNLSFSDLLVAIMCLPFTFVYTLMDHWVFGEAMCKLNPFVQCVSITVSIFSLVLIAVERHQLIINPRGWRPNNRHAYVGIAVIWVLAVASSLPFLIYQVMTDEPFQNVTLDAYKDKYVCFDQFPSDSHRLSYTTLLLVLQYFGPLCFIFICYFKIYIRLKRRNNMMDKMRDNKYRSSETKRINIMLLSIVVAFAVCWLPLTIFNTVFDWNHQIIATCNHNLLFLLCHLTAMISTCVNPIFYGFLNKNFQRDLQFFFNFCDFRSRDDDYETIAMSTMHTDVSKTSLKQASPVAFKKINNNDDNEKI
Format: cell membranes, Membrane. The conditions noted are these: sk-n-mc.
Note: in other assays of this panel Not Active means under 50% inhibition at 10 µM.

Delta-type opioid receptor, sequence (P41143 whole entry): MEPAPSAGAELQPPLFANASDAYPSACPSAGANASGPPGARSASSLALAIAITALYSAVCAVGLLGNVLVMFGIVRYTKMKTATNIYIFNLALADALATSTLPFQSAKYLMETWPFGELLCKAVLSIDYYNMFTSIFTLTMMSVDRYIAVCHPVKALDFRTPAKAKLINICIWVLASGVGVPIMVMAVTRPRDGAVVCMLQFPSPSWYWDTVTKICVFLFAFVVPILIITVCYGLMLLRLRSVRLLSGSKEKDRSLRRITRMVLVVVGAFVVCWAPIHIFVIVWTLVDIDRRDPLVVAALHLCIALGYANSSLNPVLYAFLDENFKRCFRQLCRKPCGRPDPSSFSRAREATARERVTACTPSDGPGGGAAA
Cytochrome P450 3A4, sequence (P08684 whole entry): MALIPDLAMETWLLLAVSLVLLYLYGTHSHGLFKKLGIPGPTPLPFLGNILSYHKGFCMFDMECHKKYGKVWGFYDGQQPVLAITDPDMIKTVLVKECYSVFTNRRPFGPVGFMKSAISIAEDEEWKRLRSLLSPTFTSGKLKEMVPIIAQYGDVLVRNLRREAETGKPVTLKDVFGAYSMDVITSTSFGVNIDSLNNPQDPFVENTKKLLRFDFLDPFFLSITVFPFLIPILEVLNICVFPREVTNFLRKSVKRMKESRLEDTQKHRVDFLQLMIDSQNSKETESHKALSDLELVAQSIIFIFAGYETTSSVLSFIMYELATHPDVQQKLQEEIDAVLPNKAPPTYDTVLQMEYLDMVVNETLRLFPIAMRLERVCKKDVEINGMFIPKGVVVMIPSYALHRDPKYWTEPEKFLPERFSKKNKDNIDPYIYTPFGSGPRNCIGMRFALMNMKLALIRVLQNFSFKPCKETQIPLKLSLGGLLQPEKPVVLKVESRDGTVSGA

A word on the IC50: it is the concentration at which inhibition is half-maximal. A word on the Ki: it is the equilibrium dissociation constant of an inhibitor or competing ligand from its target. Regarding `CN1C(=O)COc2c(C(=O)NC3CN4CCC3CC4)cc(Cl)cc21` (stereo not drawn) [AZASETRON], the IC50 result in data set [1], in data set [2], in data set [3], in data set [4], in data set [5] (cho-k1) and in data set [6] was “Not Active” in each case. In data set [4], the Ki result is given as “Not Active”.

`C[C@H]1C[C@H]2[C@@H]3CCC4=CC(=O)C=C[C@]4(C)[C@@]3(Cl)[C@@H](O)C[C@]2(C)[C@@]1(O)C(=O)CO` [BECLOMETHASONE]: the IC50 result in data set [1], in data set [2], in data set [3], in data set [4], in data set [5] (cho-k1) and in data set [6] was “Not Active” throughout. The Ki entry in data set [4] is “Not Active”.

On to `O=C1CC2(CCCC2)CC(=O)N1CCCCN1CCN(c2ncccn2)CC1` [BUSPIRONE], for which the IC50 result in data set [1], in data set [2], in data set [3], in data set [5] (cho-k1) and in data set [6] was “Not Active” in each case.

For the molecule `C[C@@]12C(=O)OC(=O)[C@]1(C)[C@H]1CC[C@@H]2O1` [CANTHARIDIN], the IC50 result in data set [1], in data set [2], in data set [3], in data set [4], in data set [5] (cho-k1) and in data set [6] was “Not Active” throughout. Besides, in data set [4], the Ki entry is “Not Active”.

Regarding `C[N+](C)(C)CCO.[Cl-]` [CHOLINE CHLORIDE], the IC50 entry in data set [1], in data set [2], in data set [3], in data set [4], in data set [5] (cho-k1) and in data set [6] was “Not Active” each time. The Ki result in data set [4] is on record as “Not Active”.

For `C/C=C/C[C@@H](C)[C@@H](O)[C@H]1C(=O)N[C@@H](CC)C(=O)N(C)CC(=O)N(C)[C@@H](CC(C)C)C(=O)N[C@@H](C(C)C)C(=O)N(C)[C@@H](CC(C)C)C(=O)N[C@@H](C)C(=O)N[C@H](C)C(=O)N(C)[C@@H](CC(C)C)C(=O)N(C)[C@@H](CC(C)C)C(=O)N(C)[C@@H](C(C)C)C(=O)N1C` [CYCLOSPORINE], the IC50 result in data set [1], in data set [2], in data set [3], in data set [5] (cho-k1) and in data set [6] was “Not Active” throughout.

In the case of `CC(=O)Nc1c(I)c(NC(C)=O)c(I)c(C(=O)O)c1I` [DIATRIZOIC ACID], the IC50 entry in data set [1], in data set [2], in data set [3], in data set [4], in data set [5] (cho-k1) and in data set [6] was “Not Active” in each case. In addition, the inhibition constant (Ki) result in data set [4] was “Not Active”.

For the molecule `C[C@]12CC[C@@H]3c4ccc(O)cc4CC[C@H]3[C@@H]1CC[C@@H]2O` [ESTRADIOL], the IC50 entry in data set [1], in data set [2], in data set [3], in data set [4], in data set [5] (cho-k1) and in data set [6] was “Not Active” throughout. In addition, the inhibition constant Ki entry in data set [4] is “Not Active”.

With `CC1(C)O[C@@H]2C[C@H]3[C@@H]4C[C@H](F)C5=CC(=O)C=C[C@]5(C)[C@@]4(F)[C@@H](O)C[C@]3(C)[C@]2(C(=O)CO)O1` [FLUOCINOLONE ACETONIDE], the IC50 result in data set [1], in data set [2], in data set [3], in data set [4], in data set [5] (cho-k1) and in data set [6] was “Not Active” throughout. Moreover, the Ki entry in data set [4] was “Not Active”.

`Cc1ccc(S(=O)(=O)NC(=O)NN2CC3CCCC3C2)cc1` (stereo not drawn) [GLICLAZIDE]: the IC50 result in data set [1], in data set [2], in data set [3], in data set [4], in data set [5] (cho-k1) and in data set [6] was “Not Active” in each case. In addition, the inhibitory constant (Ki) result in data set [4] is “Not Active”.

Consider `COc1ccc2c(c1)c(CC(=O)O)c(C)n2C(=O)c1ccc(Cl)cc1` [INDOMETHACIN], for which the IC50 result in data set [1], in data set [2], in data set [3], in data set [4], in data set [5] (cho-k1) and in data set [6] was “Not Active” throughout. Also, the Ki entry in data set [4] was “Not Active”.

Take `C#C[C@]1(O)CC[C@H]2[C@@H]3CCc4cc(OC)ccc4[C@H]3CC[C@@]21C` [MESTRANOL]: the IC50 result in data set [1], in data set [2], in data set [3], in data set [4], in data set [5] (cho-k1) and in data set [6] was “Not Active” each time. In addition, the Ki result in data set [4] was “Not Active”.

For the molecule `Cc1ncc([N+](=O)[O-])n1CCO` [METRONIDAZOLE], the IC50 result in data set [1], in data set [2], in data set [3], in data set [4], in data set [5] (cho-k1) and in data set [6] was “Not Active” throughout. Moreover, the Ki result in data set [4] is listed as “Not Active”.

With `CC(C)(C(=O)c1cccnc1)c1cccnc1` [METYRAPONE], the IC50 entry in data set [1], in data set [2], in data set [3], in data set [5] (cho-k1) and in data set [6] was “Not Active” throughout.

In the case of `COc1ccc2cc([C@H](C)C(=O)O)ccc2c1` [NAPROXEN], the IC50 entry in data set [1], in data set [2], in data set [3], in data set [5] (cho-k1) and in data set [6] was “Not Active” each time.

For `COC(=O)C1=C(C)NC(C)=C(C(=O)OCC(C)C)C1c1ccccc1[N+](=O)[O-]` (stereo not drawn) [NISOLDIPINE], the IC50 entry in data set [1] is “Not Active”; in data set [2] it was “Not Active”; in data set [3], “Not Active”; in data set [5] (read-out: IC50), 7.12 µM; in data set [6] it was “Not Active”. In data set [5] (read-out: Ki), the Ki turned out to be 4.02 µM.

Consider `CCC1=C[C@@H]2CN(C1)Cc1c([nH]c3ccccc13)[C@@](C(=O)OC)(c1cc3c(cc1OC)N(C)[C@H]1[C@@](O)(C(=O)OC)[C@H](OC(C)=O)[C@]4(CC)C=CCN5CC[C@]31[C@@H]54)C2` [VINORELBINE], for which the IC50 result in data set [1], in data set [2], in data set [3], in data set [5] (cho-k1) and in data set [6] was “Not Active” each time.
